Experiments:
K-562 = assay: Inhibition of cells growth by colorimetric assay (SRB), K-562; format: cell-based; details: for GI50 / LC50 (50% cell killing): Homo sapiens, K562, 48 h; for GI50 / K-562 TGI: SRB assay, 48 hours exposure; for GI50: read-out: K-562 GI50; for LC50 (50% cell killing): read-out: K-562 LC50, SRB assay, 48 hours exposure
In short: (§1)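 5×10^3 cells/well; 18 h attach; compound 10–10^−8 μg/ml in DMSO/EtOH/PBS (0.5:0.5:99), 48 h, 37 °C, 5% CO2; cold 50% TCA fix 60 min 4 °C; 0.4% SRB 10 min RT; Tris solubilization; OD 490 nm; triplicates.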

A-549 = assay: Inhibition of cells growth by colorimetric assay (SRB), A-549; format: cell-based; details: for GI50 / LC50 (concentration for 50% cell killing): Homo sapiens, A549, 48 h; for GI50 / A-549 TGI: SRB assay, 48 hours exposure; for GI50: read-out: A-549 GI50; for LC50 (concentration for 50% cell killing): read-out: A-549 LC50, SRB assay, 48 hours exposure
In short: as §1

SK-MEL-28 = assay: Inhibition of cells growth by colorimetric assay (SRB), SK-MEL-28; format: cell-based; details: for GI50 / CC50: Homo sapiens, SK-MEL-28, 48 h; for GI50 / MEL-28 TGI: SRB assay, 48 hours exposure; for GI50: read-out: MEL-28 GI50; for CC50: read-out: MEL-28 LC50, SRB assay, 48 hours exposure
In short: as §1

HT-29 = assay: Inhibition of cells growth by colorimetric assay (SRB), HT-29; format: cell-based; details: for GI50 / LC50 (concentration for 50% cell killing): Homo sapiens, HT-29, 48 h; for GI50 / HT-29 TGI: SRB assay, 48 hours exposure; for GI50: read-out: HT-29 GI50; for LC50 (concentration for 50% cell killing): read-out: HT-29 LC50, SRB assay, 48 hours exposure
In short: as §1

LoVo = assay: Inhibition of cells growth by colorimetric assay (SRB), LoVo; format: cell-based; details: for GI50 / LC50 (concentration for 50% cell killing): Homo sapiens, LoVo, 48 h; for GI50 / LOVO TGI: SRB assay, 48 hours exposure; for GI50: read-out: LOVO GI50; for LC50 (concentration for 50% cell killing): read-out: LOVO LC50, SRB assay, 48 hours exposure
In short: as §1

LoVo-Dox = assay: Inhibition of cells growth by colorimetric assay (SRB), LoVo-Dox; format: cell-based; details: for GI50 / CC50: Homo sapiens, 48 h; for GI50 / LOVO-DOX TGI: SRB assay, 48 hours exposure; for GI50: read-out: LOVO-DOX GI50; for CC50: read-out: LOVO-DOX LC50, SRB assay, 48 hours exposure
In short: as §1

DU-145 = assay: Inhibition of cells growth by colorimetric assay (SRB), DU-145; format: cell-based; details: for GI50 / CC50: Homo sapiens, DU-145, 48 h; for GI50 / DU-145 TGI: SRB assay, 48 hours exposure; for GI50: read-out: DU-145 GI50; for CC50: read-out: DU-145 LC50, SRB assay, 48 hours exposure
In short: as §1

LNCaP = assay: Inhibition of cells growth by colorimetric assay (SRB), LNCaP; format: cell-based; details: for GI50 / CC50: Homo sapiens, LNCaP, 48 h; for GI50: read-out: LNCAP GI50, SRB assay, 48 hours exposure; for CC50: read-out: LNCAP LC50, SRB assay, 48 hours exposure; for LNCAP TGI: SRB assay, 48 hours exposure
In short: as §1

SK-BR-3 = assay: Inhibition of cells growth by colorimetric assay (SRB), SK-BR-3; format: cell-based; details: for GI50 / CC50: Homo sapiens, SK-BR-3, 48 h; for GI50 / SK-BR3 TGI: SRB assay, 48 hours exposure; for GI50: read-out: SK-BR3 GI50; for CC50: read-out: SK-BR3 LC50, SRB assay, 48 hours exposure
In short: as §1

IGROV-1 = assay: Inhibition of cells growth by colorimetric assay (SRB), IGROV-1; format: cell-based; details: for GI50 / CC50: Homo sapiens, IGROV-1, 48 h; for GI50 / IGROV TGI: SRB assay, 48 hours exposure; for GI50: read-out: IGROV GI50; for CC50: read-out: IGROV LC50, SRB assay, 48 hours exposure
In short: as §1

IGROV-ET = assay: Inhibition of cells growth by colorimetric assay (SRB), IGROV-ET; format: cell-based; details: for GI50 / CC50: Homo sapiens, 48 h; for GI50 / IGROV-ET TGI: SRB assay, 48 hours exposure; for GI50: read-out: IGROV-ET GI50; for CC50: read-out: IGROV-ET LC50, SRB assay, 48 hours exposure
In short: as §1

SK-OV-3 = assay: Inhibition of cells growth by colorimetric assay (SRB), SK-OV-3; format: cell-based; details: for GI50 / LC50: Homo sapiens, SK-OV-3, 48 h; for GI50 / SK-OV3 TGI: SRB assay, 48 hours exposure; for GI50: read-out: SK-OV3 GI50; for LC50: read-out: SK-OV3 LC50, SRB assay, 48 hours exposure
In short: as §1

PANC-1 = assay: Inhibition of cells growth by colorimetric assay (SRB), PANC-1; format: cell-based; details: for GI50 / LC50 (concentration for 50% net cell kill): Homo sapiens, PANC-1, 48 h; for GI50 / PANC-1 TGI: SRB assay, 48 hours exposure; for GI50: read-out: PANC-1 GI50; for LC50 (concentration for 50% net cell kill): read-out: PANC-1 LC50, SRB assay, 48 hours exposure
In short: as §1

HMEC1 = assay: Inhibition of cells growth by colorimetric assay (SRB), HMEC1; format: cell-based; details: for GI50 / LC50: Homo sapiens, HMEC-1, 48 h; for GI50 / HMEC-1 TGI: SRB assay, 48 hours exposure; for GI50: read-out: HMEC-1 GI50; for LC50: read-out: HMEC-1 LC50, SRB assay, 48 hours exposure
In short: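 Human cancer and endothelial lines are seeded at 5×10^3 cells per well and, after 18 h, treated for 48 h with compound dissolved in DMSO/EtOH/PBS (0.5:0.5:99) at 10 to 10^−8 μg/ml. Cell mass is quantified by SRB staining (OD 490 nm), and growth inhibition, total growth inhibition and cell kill are calculated from triplicate wells.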

Text for Heart: (§2) Toxicity was asssessed by the methods reported in Toxicology in Vitro, 15 (2001) 571-577, J. Luber Narod et al.: “Evaluation of the use of in vitro methodolodies as tools for screening new compounds for potential in vivo toxicity”.
Text for Kidney: as §2
Text for Liver: as §2
Text for Myelo: as §2
Text for Skeletal: as §2

Q: How did the GI50 (K-562) turn out when `COc1cc2c(cc1OC(=O)OC(C)(C)C)CCN[C@]21CS[C@@H]2c3c(OC(=O)[C@H](C)NC(=O)OC(C)(C)C)c(C)c4c(c3[C@H](COC1=O)N1C2[C@H]2c3c(cc(C)c(OC)c3O)C[C@@H]([C@@H]1O)N2C)OCO4` (stereo partly shown) [Compound 175] was run?
A: 0.293 nM

Q: What about the LC50 (50% cell killing) (K-562) of the same molecule?
A: 0.775 nM

Q: What about the “K-562 TGI” value (K-562) of the same molecule?
A: 4.76E-10

Q: And the GI50 (A-549)?
A: 2.25 nM

Q: What about the LC50 (concentration for 50% cell killing) (A-549) of the same molecule?
A: 7.97 nM

Q: And the “A-549 TGI” value (A-549)?
A: 4.24E-09

Q: And the GI50 (SK-MEL-28)?
A: 3.28 nM

Q: What about the CC50 (SK-MEL-28) of the same molecule?
A: 25.2 nM

Q: What about the “MEL-28 TGI” value (SK-MEL-28) of the same molecule?
A: 6.63E-09

Q: And the GI50 (HT-29)?
A: 4.15 nM

Q: And the LC50 (concentration for 50% cell killing) (HT-29)?
A: 10100 nM

Q: And the “HT-29 TGI” value (HT-29)?
A: 1.54E-08

Q: What about the GI50 (LoVo) of the same molecule?
A: 2.3 nM

Q: And the LC50 (concentration for 50% cell killing) (LoVo)?
A: 8.33 nM

Q: What about the “LOVO TGI” value (LoVo) of the same molecule?
A: 4.38E-09

Q: And the GI50 (LoVo-Dox)?
A: 43.3 nM

Q: What about the CC50 (LoVo-Dox) of the same molecule?
A: 10100 nM

Q: And the “LOVO-DOX TGI” value (LoVo-Dox)?
A: 1.55E-07

Q: And the GI50 (DU-145)?
A: 3.67 nM

Q: And the CC50 (DU-145)?
A: 10100 nM

Q: What about the “DU-145 TGI” value (DU-145) of the same molecule?
A: 9.20E-09

Q: What about the GI50 (LNCaP) of the same molecule?
A: 0.382 nM

Q: What about the CC50 (LNCaP) of the same molecule?
A: 3.64 nM

Q: And the “LNCAP TGI” value (LNCaP)?
A: 1.12E-09

Q: What about the GI50 (SK-BR-3) of the same molecule?
A: 1.31 nM

Q: What about the CC50 (SK-BR-3) of the same molecule?
A: 13.2 nM

Q: And the “SK-BR3 TGI” value (SK-BR-3)?
A: 3.78E-09

Q: What about the GI50 (IGROV-1) of the same molecule?
A: 0.641 nM

Q: What about the CC50 (IGROV-1) of the same molecule?
A: 8.13 nM

Q: What about the “IGROV TGI” value (IGROV-1) of the same molecule?
A: 2.37E-09

Q: And the GI50 (IGROV-ET)?
A: 3.97 nM

Q: And the CC50 (IGROV-ET)?
A: 1720 nM

Q: And the “IGROV-ET TGI” value (IGROV-ET)?
A: 9.56E-09

Q: And the GI50 (SK-OV-3)?
A: 3.56 nM

Q: And the LC50 (SK-OV-3)?
A: 10100 nM

Q: And the “SK-OV3 TGI” value (SK-OV-3)?
A: 8.77E-09

Q: What about the GI50 (PANC-1) of the same molecule?
A: 4.38 nM

Q: And the LC50 (concentration for 50% net cell kill) (PANC-1)?
A: 10100 nM

Q: What about the “PANC-1 TGI” value (PANC-1) of the same molecule?
A: 1.33E-08

Q: What about the GI50 (HMEC1) of the same molecule?
A: 3.54 nM

Q: What about the LC50 (HMEC1) of the same molecule?
A: 10100 nM

Q: What about the “HMEC-1 TGI” value (HMEC1) of the same molecule?
A: 1.29E-08

Q: And the “Toxicity Data Liver” value (Liver)?
A: 3.87E-09

Q: And the “Toxicity Data Heart” value (Heart)?
A: 2.82E-09

Q: What about the “Toxicity Data Myelo” value (Myelo) of the same molecule?
A: 1.59E-08

Q: And the “Toxicity Data Skeletal” value (Skeletal)?
A: 2.12E-07

Q: And the “Toxicity Data Kidney” value (Kidney)?
A: 2.84E-09

Q: Which results are given for `C=COC(=O)Oc1c(C)c2c(c3c1[C@H]1SC[C@]4(NCCc5cc(OC(=O)OC(C)(C)C)c(OC)cc54)C(=O)OC[C@@H]3N3C1[C@H]1c4c(cc(C)c(OC)c4O)C[C@@H]([C@@H]3O)N1C)OCO2` (stereo partly shown) [Compound 176]?
A: GI50 (K-562): 0.737 nM; LC50 (50% cell killing) (K-562): 6.89 nM; K-562 TGI (K-562): 1.52E-09; GI50 (A-549): 2.75 nM; LC50 (concentration for 50% cell killing) (A-549): 11.2 nM; A-549 TGI (A-549): 6.01E-09; GI50 (SK-MEL-28): 25.8 nM; CC50 (SK-MEL-28): 95.6 nM; MEL-28 TGI (SK-MEL-28): 4.97E-08; GI50 (HT-29): 3.83 nM; LC50 (concentration for 50% cell killing) (HT-29): 11200 nM; HT-29 TGI (HT-29): 7.96E-09; GI50 (LoVo): 11.1 nM; LC50 (concentration for 50% cell killing) (LoVo): 112 nM; LOVO TGI (LoVo): 5.12E-08; GI50 (LoVo-Dox): 47.3 nM; CC50 (LoVo-Dox): 11200 nM; LOVO-DOX TGI (LoVo-Dox): 1.15E-06; GI50 (DU-145): 5.24 nM; CC50 (DU-145): 8360 nM; DU-145 TGI (DU-145): 1.10E-08; GI50 (LNCaP): 1.62 nM; CC50 (LNCaP): 6.49 nM; LNCAP TGI (LNCaP): 3.25E-09; GI50 (SK-BR-3): 2.7 nM; CC50 (SK-BR-3): 40.6 nM; SK-BR3 TGI (SK-BR-3): 7.73E-09; GI50 (IGROV-1): 1.74 nM; CC50 (IGROV-1): 10.7 nM; IGROV TGI (IGROV-1): 4.30E-09; GI50 (IGROV-ET): 4.88 nM; CC50 (IGROV-ET): 3450 nM; IGROV-ET TGI (IGROV-ET): 3.38E-08; GI50 (SK-OV-3): 3.26 nM; LC50 (SK-OV-3): 11 nM; SK-OV3 TGI (SK-OV-3): 8.07E-09; GI50 (PANC-1): 5.31 nM; LC50 (concentration for 50% net cell kill) (PANC-1): 3200 nM; PANC-1 TGI (PANC-1): 1.97E-08; GI50 (HMEC1): 3.46 nM; LC50 (HMEC1): 11200 nM; HMEC-1 TGI (HMEC1): 1.48E-07; Toxicity Data Liver (Liver): 2.95E-08; Toxicity Data Heart (Heart): 1.98E-08; Toxicity Data Myelo (Myelo): 1.42E-08; Toxicity Data Skeletal (Skeletal): 2.41E-08; Toxicity Data Kidney (Kidney): 2.80E-09
